Test results: patent US10688197B2, “Non-alcoholic fatty liver regulator 14-3-3 protein” (Korea University Research and Business Foundation, priority 2015, dated 2020)

Experiments:
[1] = system: primary mouse hepatocytes; experiment: Triglyceride colorimetric assay in primary mouse hepatocytes; type: cell-based; conditions: FIG. 10A
Method: HepG2 cells and primary mouse hepatocytes were separately seeded in a 6-well plate at a density of 4×10^5 cells per each well, and then transfected with GFP-14-3-3β DNA (1 μg) or GFP-14-3-3γ DNA (1 μg) and si-14-3-3β (10 μM, Santa Cruz) or si-14-3-3γ (10 μM, Santa Cruz) using an E-fection plus reagent (Lugen). A ratio of DNA to the E-fection plus reagent was 1:2, and this method was performed according to a manufacturer's manual. After transfection, the cells were treated with 200 μM of oleic acid (OA) for 72 hours, and the amount of triglycerides was measured using a triglyceride colorimetric assay kit (Cayman Chemical). The corresponding cells were washed with ice-cold PBS and then scraped using a standard diluent assay reagent, the scrapping process was repeated using a sonicator 20 times to lyse the cells, and the lysed cells were reacted with an enzyme buffer solution for 15 minutes, followed by measurement using an ELISA reader (Bio-Rad Laboratories, Inc) at a wavelength of 550 nm.

[2] = system: primary mouse hepatocytes; experiment: mRNA expression by real-time PCR in primary mouse hepatocytes; type: cell-based; conditions: for mRNA expression of SREBP-1c and FAT/CD36: overexpression, oleic acid, FIG. 7B
Method: HepG2 cells and primary mouse hepatocytes were separately seeded in a 6-well plate at a density of 4×10^5 cells per each well, and then treated with 200 μM of oleic acid (OA) for 72 hours. For mRNA extraction, the corresponding cells were lysed with 1 ml/well of TRIzol (Invitrogen), 200 μl of chloroform was added thereto and mixed well, the resultant cells were maintained at room temperature for 5 minutes and then centrifuged at 12,000×g and 4° C. for 15 minutes, the obtained supernatant was mixed with 500 μl of isopropanol and then put on ice for 10 minutes, the resulting supernatant was centrifuged at 12,000×g and 4° C. for 15 minutes to remove a supernatant, and then pellets were dissolved with tertiary distilled water treated with diethyl pyrocarbonate (DEPC). 2 μg of mRNA was synthesized into cDNA using a Superscript First Strand cDNA Synthesis Kit (Bioneer, Daejeon, South Korea) and the synthesized cDNA as a template was amplified through polymerase chain reaction (PCR) using primers specific to PPARγ2, 14-3-3β, 14-3-3γ, SREBP-1c, SCD-1, ACC, FABP, FAT/CD36, and β-actin of humans, and was amplified through real-time PCR using primers specific to PPARγ2, 14-3-3β, 14-3-3γ, SREBP-1c, FAT/CD36, and GAPDH of mice. β-actin and GAPDH were used as controls to see whether mRNAs of the respective cells were compared in the same amount.
HepG2 cells were seeded in a 6-well plate at a density of 4×10^5 cells per each well, and then transfected with GFP-14-3-3β DNA (4 μg) or GFP-14-3-3γ DNA (4 μg) using an E-fection plus reagent (Lugen). A ratio of DNA to the E-fection plus reagent was 1:2, and this method was performed according to a manufacturer's manual. After transfection, the cells were treated with 200 μM of oleic acid (OA) for 72 hours, and for mRNA extraction, the corresponding cells were lysed with 1 ml/well of TRIzol (Invitrogen), 200 μl of chloroform was added thereto and mixed well, the resultant cells were maintained at room temperature for 5 minutes and then centrifuged at 12,000×g and 4° C. for 15 minutes, the obtained supernatant was mixed with 500 μl of isopropanol and then put on ice for 10 minutes, and the resulting supernatant was centrifuged at 12,000×g and 4° C. for 15 minutes to remove a supernatant, and then pellets were dissolved with tertiary distilled water treated with diethyl pyrocarbonate (DEPC). 2 μg of mRNA was synthesized into cDNA using a Superscript First Strand cDNA Synthesis Kit (Bioneer, Daejeon, South Korea) and the synthesized cDNA as a template was amplified through polymerase chain reaction (PCR) using primers specific to PPARγ2 (SEQ ID NOS: 1 and 2), 14-3-3β (SEQ ID NOS: 3 and 4), 14-3-3γ (SEQ ID NOS: 5 and 6), SREBP-1c, FAT/CD36, and β-actin of humans, and was amplified through real-time PCR using primers specific to SREBP-1c, FAT/CD36, and GAPDH of mice. β-actin and GAPDH were used as controls to see whether mRNAs of the respective cells were compared in the same amount.

[3] = primary mouse hepatocytes, overexpression, 200 μM oleic acid 72 hours

Row | Compound | triglyceride accumulation [1, 3] | mRNA expression of SREBP-1c and FAT/CD36 [2] | triglyceride accumulation ([1]; primary mouse hepatocytes treated with oleic acid) | mRNA expression of PPARγ2 ([2]; oleic acid concentration-dependent, FIG. 6B) | mRNA expression of lipid metabolism-associated genes (PPARγ2 target genes) ([2]; oleic acid concentration-dependent, FIG. 6D) | mRNA expression amounts of 14-3-3β and 14-3-3γ ([2]; oleic acid treatment, FIG. 6B)
1 | 14-3-3β: 14-3-3 isoform protein overexpressed by DNA transfection; increases the transcriptional activity of PPARγ2 by binding to PPARγ2 | further increased | further increased | – | – | – | –
2 | 14-3-3γ: 14-3-3 isoform protein overexpressed by DNA transfection; decreases the transcriptional activity of PPARγ2; proposed active ingredient | reduced | reduced | – | – | – | –
3 | CCCCCCCC/C=C\CCCCCCCC(=O)O [oleic acid] | – | – | increased | increased | increased | no changes
